Consider two compounds from patent publication US20160025717A1, “HYPOSIALYLATION DISORDERS” (THE UNITED STATES OF AMERICA, AS REPRESENTED BY THE …, priority 2013, published 2016).

This test deals with GNE myopathy patients. The experiment in a line: Plasma T/ST ratio (T-antigen to monosialylated ST-antigen) by LC-MS/MS in treated GNE myopathy patients. The class given is in vivo, human. As to the method:
The quantification of the T/ST ratio was carried out using the O-glycan quantification methods disclosed in Liu et al., Mol Genet Metab 106, 442-454 (2012). Briefly, O-linked glycans from human serum or plasma total glycoproteins were released by sodium hydroxide with sodium borohydrate and desalted by ion-exchange column and then permethylated before the quantity of T-antigen and monosialyl ST-antigen was measured using LC-MS/MS method. Plasma samples from 40 normal controls were used to establish the normal range for the T/ST ratio at <0.056. A cut-off of 0.06 was used to diagnose hyposialylation of O-linked protein glycosylation in human plasma or serum.
O-glycans were released from plasma glycoproteins and prepared for analysis essentially as described by Carlson (J Biol Chem 243: 616-626, 1968; Liu et al. Mol Genet Metab 2012, 106, 442-454 (2012)), with modifications as described. An internal standard (1250 pmol raffinose in 5 μL) was added to 10 μL of plasma and […] for a final volume of 100 μL. Next, 100 μL of freshly prepared 2M […] in 0.1M sodium hydroxide was added to denature the serum proteins and release the O-glycans; the mixture was incubated at 45° C. for 16 hours to ensure complete reaction. The reaction was neutralized by drop wise addition of 1.6 mL of a 0.25M acetic acid-methanol solution, and the O-glycans were extracted in methanol. Finally, the extracted glycans were desalted through ion-exchange AG 50W-X8 resin (Bio-Rad, Hercules, Calif.) following the manufacture's instruction and lyophilized overnight. The dried samples were dissolved in DMSO for permethylation.
Both N-glycans and O-glycans were permethylated as previously described with minor modification (Guillard et al. Clin Chem 57, 593-602 (2011)). Briefly, four NaOH pellets (approximately 375 mg) were crushed in 10 ml anhydrous DMSO, 0.5 μL water, 0.4 ml of this slurry and 0.1 ml CH3I were added to the dried glycans and the mixture was shaken vigorously for one hour. The mixture was extracted five times sequentially with a mixture of 200 μL water and 600 μL chloroform. […]

Regarding `CC(=O)N[C@H]1[C@@H](O)[C@H](O)[C@@H](CO)O[C@H]1O` [ManNAc, N-acetyl-D-mannosamine], the T/ST ratio entry (GNE myopathy patient SIA79 self-administering off-label ManNAc, cut-off 0.06) is on record as “normal range”.
Take `CC(=O)N[C@@H]1C(O)C[C@](O)(C(=O)O)OC1[C@H](O)[C@H](O)CO` (stereo in doubt) [sialic acid, 5-N-acetylneuraminic acid]: the T/ST ratio (GNE myopathy patient NH00016, after three months without medication (after sialic acid)) is 0.7 and the T/ST ratio (GNE myopathy patient NH00016, had received sialic acid one month before the test) was 0.05.
